This note sets out measurements from patent US11478488B2, “Co-crystals of tramadol and coxibs” (ESTEVE PHARMACEUTICALS, S.A., priority 2009, dated 2022).

Experiment [1] deals with incision-induced thermal hyperalgesia in the incised rat hind paw. As to the kind of experiment: Thermal hyperalgesia (plantar test, Hargreaves) in paw incision postoperative pain model. It is filed as in vivo, Wistar rats. The settings on record: for ED50: read-out: ED50 thermal hyperalgesia (after sigmoidal adjustment); for Efficacy on thermal hyperalgesia: rat paw incision, intraperitoneal dose response, FIG. 8. The procedure: (§1) Male, Wistar rats (120-160 g, Harlan, Italy) were housed in a climate-controlled room for at least 5 days prior to testing.
(§2) The dosing volume was 10 ml/kg. The antihyperalgesic or antiallodynic response of the animal was subsequently evaluated 60 min after drug administration.
(§3) Rats were anaesthetized with 3% isofluorane for veterinary use, employing an Ohmeda vaporizer and an anaesthesia chamber. Anaesthesia was kept during the surgical operation by a tube which directs the isoflurane vapours to the animal's snout. Once the rats were anaesthetised, they were laid down in a prone position and their right hindpaws were cleaned out with alcohol. Then, a 1 cm longitudinal incision was made with a number 23 scalpel, through skin and fascia of the plantar aspect of the paw, starting 0.5 cm from the proximal edge of the heel and extending toward the toes. Therefore, both superficial (skin) and deep (muscle) tissues and nerves were injured. Finally, the skin of the paw was stitched with a suturing stitch with breaded silk (3.0) and the wound was cleaned out with povidone.
(§4) The drugs were tested 4 hours after the surgery (plantar incision); 60 minutes after the administration of the product, two behavioural endpoints were evaluated: thermal hypersensitivity or hyperalgesia, and mechanical hypersensitivity or allodynia.
Animals were placed in the methacrylate cages of said apparatus, having a crystal floor. The acclimation period within the cages was about 10 minutes. The thermal stimulus came from a lamp moving below the crystal floor and which was applied to both paws, with a minimum interval of 1 minute between both stimulations in order to avoid learning behaviours. The rat is able to withdraw the paw freely when it feels discomfort (pain) produced by the heat coming from the lamp; then it is switched off and the latency time to the withdrawal response is recorded in seconds. In order to avoid hurting the animal's paw, the lamp was automatically switched off after 32 seconds.

Experiment [2] has as its system motor behaviour of monoarthritic rats (carrageenan-induced gait changes). As to the kind of experiment: Pain-induced gait adaptation (CBMS) in carrageenan-induced acute monoarthritic model. The conditions noted are these: intraperitoneal 4.5 h after carrageenan, measured 30 min after administration; co-crystal 20 mg/kg, single drugs at corresponding dose.
Protocol: Movement-evoked pain was evaluated by a computerized behavioral monitoring system (CBMS).
The rat carrageenan model utilizes inflammation-associated pain following injection of the knee joint (monoarthritic model). […] The CBMS was used to assess gait related changes 5 hours after carrageenan injection and 30 min after drugs administration. […] Mechanical allodynia was measured with von Frey filaments 15 minutes after CBMS gait analysis.
Food and water were available ad libitum up to test time.
The dosing volume was 2 ml/kg. The drug response of the animal was subsequently evaluated 30 and 45 min after drug administration (for CBMS and von Frey respectively).
Joint inflammation was induced by carrageenan (Sigma Chemical, St. Louis, Mo.) injected percutaneously using a 30-gauge needle through the infrapatellar ligament into the right knee joint cavity (300 μg, 40 μl) with the animal under brief isoflurane (IsoFlo®, Abbott-Esteve, Barcelona, Spain) anaesthesia (3%).
Detailed analysis of gait was performed on walking rats using the CBMS method. Briefly, light from a fluorescent tube is sent through a glass plate. Light rays are completely reflected internally. As soon as anything, e.g. a rat's paw, is in contact with the glass surface, light is reflected downwards. It results in a sharp image of a bright paw print. The whole run is recorded via a camera placed under the glass plate. […]
The test system of experiment [3] is incision-induced mechanical allodynia in the incised rat hind paw. As to the kind of experiment: Mechanical allodynia (von Frey filaments) in paw incision postoperative pain model. It is filed as in vivo, Wistar rats. The conditions noted are these: ip. The procedure: as §1, §2, §3, §4
Mechanical allodynia was tested using von Frey filaments. Animals were placed in methacrylate cylinders on an elevated surface, with metallic mesh floor perforated in order to apply the filaments. After an acclimation period of about 30 minutes within the cylinders, both hindpaws were stimulated (the injured and the non-injured paw, serving the latter as control), starting with the lowest force filament (0.4 g) and reaching up to a 15 g filament. The animal's response to pain was manifested by the withdrawal of the paw as a consequence of the painful stimulus caused by a filament. The pressure (force in grams) threshold eliciting the withdrawal of the paw was recorded.
Where it is established that Zmix<Zadd for a specific fixed-ratio, then that composition has a synergistic anti-hyperalgesic effect. Both ED50 mix and ED50 add values are random variables. ED50 mix is determined from the dose-response curve for a specific fixed-ratio of the components; ED50 add is calculated from the ED50 values for the individual drugs. Zmix is then compared to Zadd via a Student's t-test.

The mark [4] stands for this setting: intraperitoneal single dose, 4 h after surgery, evaluated 60 min after administration, read-out: ED50 mechanical allodynia (after sigmoidal adjustment).
The mark [5] stands for this setting: intraperitoneal, separate ED50 of single drugs for isobologram analysis, read-out: ED50 on mechanical allodynia as used in the isobologram (FIG. 7).

Where two headings read alike, the source gives them in different places.

What is called ED50 is the dose that gives a 50% effect, or the effect in half of the subjects. Consider `COc1cccc(C2(O)CCCCC2CN(C)C)c1` (racemic) [Tramadol, 2-(dimethylaminomethyl)-1-(3-methoxyphenyl)cyclohexanol], for which the ED50 turned out to be 8.3 mg/kg in experiment [1] (Rattus norvegicus, ip); 5.41 mg/kg in experiment [3] (setting [4]); 5.28 mg/kg in experiment [3] (setting [5]). Moreover, the “Efficacy on thermal hyperalgesia” value in experiment [1] is given as “full efficacy”. Besides, in experiment [2], the “Effect on carrageenan-induced gait changes (CBMS)” value is “inhibited”.
Consider `Cc1ccc(-c2cc(C(F)(F)F)nn2-c2ccc(S(N)(=O)=O)cc2)cc1` [Celecoxib, 4-[5-(4-methylphenyl)-3-(trifluoromethyl)-pyrazol-1-yl]benzenesulfonamide], for which the Emax in experiment [1] (Rattus norvegicus, ip, 1 h, read-out: Emax thermal hyperalgesia, rat paw incision, intraperitoneal, 60 min after administration) came to 45%. The ED50 in experiment [1] (Rattus norvegicus, ip) turned out to be 2.35 mg/kg; in experiment [3] (setting [4]) it was 3.03 mg/kg; in experiment [3] (setting [5]), 3.01 mg/kg. Also, the “Efficacy on thermal hyperalgesia” value in experiment [1] is “only a partial response”. Further, the “Effect on carrageenan-induced gait changes (CBMS)” value in experiment [2] was “inhibited”.
